Results published in patent publication US6461997B1, “Triazole sulfones having herbicidal activity” (Monsanto Technology LLC, priority 1999, dated 2002).

The compounds below were run on VERPE (creeping speedwell) (assay: Pre-emergence herbicidal activity, cool season). Details: lowest tested rate with 80% or greater inhibition; rates 300, 100, 30, 10 g/ha; about 14 days.
Assay type: in vivo, Veronica persicaria
Outline: (§1)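 Seeds sown in sterilised fertilised topsoil received surface-applied compound in 50:50 acetone/water, typically at 300, 100, 30 and 10 g/ha, then greenhouse-grown at 30/21° C (warm-season species) or 18/13° C (cool-season species). Percent inhibition versus untreated plants was scored at about 14 days, giving GR80; an asterisk marks activity short of 80% at the top rate.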

SMILES | Pre-emergence activity GR80, VERPE
CCSC(F)(F)S(=O)(=O)c1ncn(C(=O)N(C)C2CCCCC2)n1 [Example 55] | [empty]

Each compound was assayed on SETFA (giant foxtail) (assay: Pre-emergence herbicidal activity, warm season). Details: GR80 = lowest tested rate (300, 100, 30, 10 g/ha) with 80% or greater inhibition; approx. 14 days after treating; 30/21° C.
Assay type: in vivo, Setaria faberi
Method: (§2) Tables 5 to 8 summarize results of tests conducted as described below to determine the pre-emergence herbicidal activity, in the form of a GR80 value, of illustrative compounds of this invention. […] Compounds of the invention were typically applied at rates of 300, 100, 30, and 10 g/ha. Where herbicidal activity was evident but 80% inhibition was not achieved at the highest rate tested, an asterisk (*) is shown in the following tables.
(§3) The pre-emergence tests were conducted by the following procedure. Topsoil was sieved to pass through a 1.27 cm screen. Fertilizer was added to the topsoil and the mixture was then sterilized by heating. The topsoil mixture was placed in a pot and compacted to a depth of 1.0 to 1.25 cm from the top of the pot. Seeds of each of several monocotyledonous and dicotyledonous annual plant species were placed on top of the soil. Additional soil was subsequently placed over the seeds to level-fill the pot. A known amount of each test compound dissolved or suspended in an appropriate organic solvent was diluted with a 50:50 mix of acetone and water and applied to the surface of the soil. After treatment the plants were placed in a greenhouse where they received 0.64 cm of overhead irrigation. All subsequent watering consisted of a light overhead mist and/or subirrigation as needed for germination and growth. Tables 5 and 6 below relate to warm season plant species which were placed after pre-emergence treatment in a greenhouse with a 30/21° C. day/night temperature regime. Tables 7 and 8 below relates to cool season plant species placed after pre-emergence treatment in a greenhouse or growth chamber with an 18/13° C. day/night temperature regime.
(§4) Approximately 14 days after planting and treating, the plants were observed and herbicidal efficacy recorded as percent inhibition by comparison with untreated plants.
(§5) The plant species usually regarded as weeds which were utilized in the tests are identified in the tables below according to the following legend, in which “d” indicates a dicotyledonous species and “m” a monocotyledonous species. All monocotyledonous species included in the tests herein are grasses.

SMILES | Pre-emergence activity (GR80) SETFA [g/ha]
CCSC(F)(F)S(=O)(=O)c1ncn(C(=O)N(C)C2CCCCC2)n1 [Example 55] | 300

Each compound was assayed on SASKR (russian thistle) (assay: Pre-emergence herbicidal activity, cool season). Details: lowest tested rate with 80% or greater inhibition; rates 300, 100, 30, 10 g/ha; about 14 days.
Assay type: in vivo, Salsola kali
Outline: as §1

SMILES | Pre-emergence activity GR80, SASKR
CCSC(F)(F)S(=O)(=O)c1ncn(C(=O)N(C)C2CCCCC2)n1 [Example 55] | [empty]

These compounds were tested on BRAPP (broadleaf signalgrass) (assay: Pre-emergence herbicidal activity, warm season). Details: GR80 = lowest tested rate (300, 100, 30, 10 g/ha) with 80% or greater inhibition; approx. 14 days after treating; 30/21° C.
Assay type: in vivo, Brachiaria platyphylla
Method: as §2, §3, §4, §5

SMILES | Pre-emergence activity (GR80) BRAPP [g/ha]
CCSC(F)(F)S(=O)(=O)c1ncn(C(=O)N(C)C2CCCCC2)n1 [Example 55] | 300

What follows are compounds tested on SINAR (wild mustard) (assay: Pre-emergence herbicidal activity, cool season). Details: lowest tested rate with 80% or greater inhibition; rates 300, 100, 30, 10 g/ha; about 14 days.
Assay type: in vivo, Sinapis arvensis
Outline: as §1

SMILES | Pre-emergence activity GR80, SINAR
CCSC(F)(F)S(=O)(=O)c1ncn(C(=O)N(C)C2CCCCC2)n1 [Example 55] | [empty]

What follows are compounds tested on GALAP (catchweed bedstraw) (assay: Pre-emergence herbicidal activity, cool season). Details: lowest tested rate with 80% or greater inhibition; rates 300, 100, 30, 10 g/ha; about 14 days.
Assay type: in vivo, Galium aparine
Outline: as §1

SMILES | Pre-emergence activity GR80, GALAP
CCSC(F)(F)S(=O)(=O)c1ncn(C(=O)N(C)C2CCCCC2)n1 [Example 55] | [empty]

These compounds were tested on LAMPU (purple deadnettle) (assay: Pre-emergence herbicidal activity, cool season). Details: lowest tested rate with 80% or greater inhibition; rates 300, 100, 30, 10 g/ha; about 14 days.
Assay type: in vivo, Lamium purpureum
Outline: as §1

SMILES | Pre-emergence activity GR80, LAMPU
CCSC(F)(F)S(=O)(=O)c1ncn(C(=O)N(C)C2CCCCC2)n1 [Example 55] | [empty]

Each compound was assayed on POROL (common purslane) (assay: Pre-emergence herbicidal activity, warm season). Details: GR80 = lowest tested rate (300, 100, 30, 10 g/ha) with 80% or greater inhibition; approx. 14 days after treating; 30/21° C.
Assay type: in vivo, Portulaca oleracea
Method: as §2, §3, §4, §5

SMILES | Pre-emergence activity (GR80) POROL [g/ha]
CCSC(F)(F)S(=O)(=O)c1ncn(C(=O)N(C)C2CCCCC2)n1 [Example 55] | 300

Each compound was assayed on DIGSA (large crabgrass) (assay: Pre-emergence herbicidal activity, warm season). Details: GR80 = lowest tested rate (300, 100, 30, 10 g/ha) with 80% or greater inhibition; approx. 14 days after treating; 30/21° C.
Assay type: in vivo, Digitaria sanguinalis
Method: as §2, §3, §4, §5

SMILES | Pre-emergence activity (GR80) DIGSA [g/ha]
CCSC(F)(F)S(=O)(=O)c1ncn(C(=O)N(C)C2CCCCC2)n1 [Example 55] | 300

What follows are compounds tested on STEME (common chickweed) (assay: Pre-emergence herbicidal activity, cool season). Details: lowest tested rate with 80% or greater inhibition; rates 300, 100, 30, 10 g/ha; about 14 days.
Assay type: in vivo, Stellaria media
Outline: as §1

SMILES | Pre-emergence activity GR80, STEME
CCSC(F)(F)S(=O)(=O)c1ncn(C(=O)N(C)C2CCCCC2)n1 [Example 55] | [empty]

Each compound was assayed on SORHA (johnsongrass (seedling)) (assay: Pre-emergence herbicidal activity, warm season). Details: GR80 = lowest tested rate (300, 100, 30, 10 g/ha) with 80% or greater inhibition; approx. 14 days after treating; 30/21° C.
Assay type: in vivo, Sorghum halepense
Method: as §2, §3, §4, §5

SMILES | Pre-emergence activity (GR80) SORHA [g/ha]
CCSC(F)(F)S(=O)(=O)c1ncn(C(=O)N(C)C2CCCCC2)n1 [Example 55] | 300

Each compound was assayed on SORVU (shattercane) (assay: Pre-emergence herbicidal activity, warm season). Details: GR80 = lowest tested rate (300, 100, 30, 10 g/ha) with 80% or greater inhibition; approx. 14 days after treating; 30/21° C.
Assay type: in vivo, Sorghum vulgare
Method: as §2, §3, §4, §5

SMILES | Pre-emergence activity (GR80) SORVU [g/ha]
CCSC(F)(F)S(=O)(=O)c1ncn(C(=O)N(C)C2CCCCC2)n1 [Example 55] | 300

The compounds below were run on POLCO (wild buckwheat) (assay: Pre-emergence herbicidal activity, cool season). Details: lowest tested rate with 80% or greater inhibition; rates 300, 100, 30, 10 g/ha; about 14 days.
Assay type: in vivo, Polygonum convolvulus
Outline: as §1

SMILES | Pre-emergence activity GR80, POLCO [g/ha]
CCSC(F)(F)S(=O)(=O)c1ncn(C(=O)N(C)C2CCCCC2)n1 [Example 55] | 300

These compounds were tested on AGSST (creeping bentgrass) (assay: Pre-emergence herbicidal activity, cool season). Details: GR80 = lowest tested rate (300, 100, 30, 10 g/ha) with 80% or greater inhibition; approx. 14 days after treating; 18/13° C.
Assay type: in vivo, Agrostis stolonifera
Outline: as §1

SMILES | Pre-emergence activity (GR80) AGSST [g/ha]
CCSC(F)(F)S(=O)(=O)c1ncn(C(=O)N(C)C2CCCCC2)n1 [Example 55] | 300

Each compound was assayed on PANMI (wild proso millet) (assay: Pre-emergence herbicidal activity, warm season). Details: GR80 = lowest tested rate (300, 100, 30, 10 g/ha) with 80% or greater inhibition; approx. 14 days after treating; 30/21° C.
Assay type: in vivo, Panicum miliaceum
Outline: as §1

SMILES | Pre-emergence activity (GR80) PANMI [g/ha]
CCSC(F)(F)S(=O)(=O)c1ncn(C(=O)N(C)C2CCCCC2)n1 [Example 55] | 100

Each compound was assayed on SOLNI (black nightshade) (assay: Pre-emergence herbicidal activity, warm season). Details: GR80 = lowest tested rate (300, 100, 30, 10 g/ha) with 80% or greater inhibition; approx. 14 days after treating; 30/21° C.
Assay type: in vivo, Solanum nigrum
Method: as §2, §3, §4, §5

SMILES | Pre-emergence activity (GR80) SOLNI [g/ha]
CCSC(F)(F)S(=O)(=O)c1ncn(C(=O)N(C)C2CCCCC2)n1 [Example 55] | 300

These compounds were tested on ECHCG (barnyardgrass) (assay: Pre-emergence herbicidal activity, warm season). Details: GR80 = lowest tested rate (300, 100, 30, 10 g/ha) with 80% or greater inhibition; approx. 14 days after treating; 30/21° C.
Assay type: in vivo, Echinochloa crus-galli
Outline: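 GR80 values derive from percent inhibition relative to untreated plants, read roughly 14 days after sowing and pre-emergence soil-surface treatment (compound in 50:50 acetone/water; rates typically 10, 30, 100, 300 g/ha). Warm-season weeds grew at 30/21° C day/night, cool-season ones at 18/13° C; an asterisk marks activity without reaching 80% at the highest rate.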

SMILES | Pre-emergence activity (GR80) ECHCG [g/ha]
CCSC(F)(F)S(=O)(=O)c1ncn(C(=O)N(C)C2CCCCC2)n1 [Example 55] | 300

What follows are compounds tested on ABUTH (velvetleaf) (assay: Pre-emergence herbicidal activity, warm season). Details: GR80 = lowest tested rate (300, 100, 30, 10 g/ha) with 80% or greater inhibition; approx. 14 days after treating; 30/21° C.
Assay type: in vivo, Abutilon theophrasti
Method: as §2, §3, §4, §5

SMILES | Pre-emergence activity (GR80) ABUTH [g/ha]
CCSC(F)(F)S(=O)(=O)c1ncn(C(=O)N(C)C2CCCCC2)n1 [Example 55] | 300

What follows are compounds tested on SETVI (green foxtail) (assay: Pre-emergence herbicidal activity, cool season). Details: GR80 = lowest tested rate (300, 100, 30, 10 g/ha) with 80% or greater inhibition; approx. 14 days after treating; 18/13° C.
Assay type: in vivo, Setaria viridis
Outline: as §1

SMILES | Pre-emergence activity (GR80) SETVI [g/ha]
CCSC(F)(F)S(=O)(=O)c1ncn(C(=O)N(C)C2CCCCC2)n1 [Example 55] | 300

What follows are compounds tested on CHEAL (common lambsquarters) (assay: Pre-emergence herbicidal activity, warm season). Details: GR80 = lowest tested rate (300, 100, 30, 10 g/ha) with 80% or greater inhibition; approx. 14 days after treating; 30/21° C.
Assay type: in vivo, Chenopodium album
Method: as §2, §3, §4, §5

SMILES | Pre-emergence activity (GR80) CHEAL [g/ha]
CCSC(F)(F)S(=O)(=O)c1ncn(C(=O)N(C)C2CCCCC2)n1 [Example 55] | 300
